Test results reported in PMC8253220, “Molecular design, synthesis and in vitro biological evaluation of thienopyrimidine–hydroxamic acids as chimeric kinase HDAC inhibitors: a challenging approach to combat cancer” (Journal of Enzyme Inhibition and Medicinal Chemistry, 2021).
Several values for one entry are separate records, joined by “and”; a condition that tells them apart may be missing. Equal entries are not always repeated.

Assays:
Assay in all cases: NCI one-dose screen
Format in all cases: cell-based, human
SN12C = conditions: Renal SN12C, 10 µM single dose
Outline: (§1)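 One concentration (10 μM) applied to each line of the full NCI-60 panel; percent growth compared against untreated cells.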

HCT-15 = conditions: Colon HCT-15, 10 µM single dose
Outline: as §1

LOX IMVI = conditions: Melanoma LOX IMVI, 10 µM single dose
Outline: as §1

MDA-MB-231/ATCC = conditions: Breast MDA-MB-231/ATCC, 10 µM single dose
Outline: as §1

COLO 205 = conditions: Colon COLO 205, 10 µM single dose
Outline: as §1

ACHN = conditions: Renal ACHN, 10 µM single dose
Outline: as §1

NCI-H522 = conditions: for Growth Percent: NSCLC NCI-H522, 10 µM single dose
Outline: (§2)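 Single dose of 10 μM tested across the full NCI-60 cell panel. Values are percent growth inhibition relative to untreated control cells, following standard NCI methodology.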

SW-620 = conditions: Colon SW-620, 10 µM single dose
Outline: as §1

CCRF-CEM = conditions: Leukemia CCRF-CEM, 10 µM single dose
Outline: as §1

HCC-2998 = conditions: Colon HCC-2998, 10 µM single dose
Outline: as §1

DU-145 = conditions: Prostate DU-145, 10 µM single dose
Outline: as §1

786-0 = conditions: Renal 786-0, 10 µM single dose
Outline: as §1

NCI-H23 = conditions: for Growth Percent: NSCLC NCI-H23, 10 µM single dose
Outline: (§3)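 Each cell line received compound at 10 μM as part of the NCI one-dose protocol. Values reflect growth inhibition percent calculated from growth relative to untreated controls.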

NCI-H226 = conditions: NSCLC NCI-H226, 10 µM single dose
Outline: as §2

SK-MEL-28 = conditions: Melanoma SK-MEL-28, 10 µM single dose
Outline: as §1

MDA-MB-468 = conditions: Breast MDA-MB-468, 10 µM single dose
Outline: as §3

RXF 393 = conditions: Renal RXF 393, 10 µM single dose
Outline: as §1

HOP-92 = conditions: NSCLC HOP-92, 10 µM single dose
Outline: as §1

IGROV1 = conditions: Ovarian IGROV1, 10 µM single dose
Outline: as §1

OVCAR-3 = conditions: Ovarian OVCAR-3, 10 µM single dose
Outline: as §1

SK-MEL-5 = conditions: Melanoma SK-MEL-5, 10 µM single dose
Outline: as §1

OVCAR-8 = conditions: Ovarian OVCAR-8, 10 µM single dose
Outline: as §1

SF-268 = conditions: for Growth Percent: CNS SF-268, 10 µM single dose
Outline: as §3

BT-549 = conditions: Breast BT-549, 10 µM single dose
Outline: as §1

SNB-75 = conditions: for Growth Percent: CNS SNB-75, 10 µM single dose
Outline: as §2

MALME-3M = conditions: Melanoma MALME-3M, 10 µM single dose
Outline: as §1

TK-10 = conditions: Renal TK-10, 10 µM single dose
Outline: as §1

OVCAR-4 = conditions: Ovarian OVCAR-4, 10 µM single dose
Outline: as §1

OVCAR-5 = conditions: Ovarian OVCAR-5, 10 µM single dose
Outline: as §1

K-562 = conditions: Leukemia K-562, 10 µM single dose
Outline: as §1

PC-3 = conditions: Prostate PC-3, 10 µM single dose
Outline: as §1

HOP-62 = conditions: NSCLC HOP-62, 10 µM single dose
Outline: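 Following the standard NCI-60 protocol, compounds were applied once at 10 μM to all 60 cancer lines. Read-out is percent growth versus untreated controls, expressed as inhibition %.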

EKVX = conditions: NSCLC EKVX, 10 µM single dose
Outline: as §2

MCF7 = conditions: for Growth Percent: Breast MCF7, 10 µM single dose
Outline: as §3

U251 = conditions: for Growth Percent: CNS U251, 10 µM single dose
Outline: as §2

Cc1c(C(=O)NO)sc2ncnc(Nc3ccccc3)c12 [Compound 15b, N-hydroxy-5-methyl-4-(phenylamino)thieno[2,3-d]pyrimidine-6-carboxamide]
Growth Percent (SN12C): 92.8% and 92.82%
Growth Percent (HCT-15): 91.3% and 91.34%
Growth Percent (LOX IMVI): 96.0% and 96.03%
Growth Percent (MDA-MB-231/ATCC): 100.3% and 100.34%
Growth Percent (COLO 205): 115.6% and 115.62%
Growth Percent (ACHN): 95.0% and 95.07%
Growth Percent (NCI-H522): 86.6% and 86.62%
Growth Percent (SW-620): 89.5% and 89.53%
Growth Percent (CCRF-CEM): 98.7% and 98.78%
Growth Percent (HCC-2998): 99.9% and 99.98%
Growth Percent (DU-145): 100.1% and 100.13%
Growth Percent (786-0): 98.6% and 98.65%
Growth Percent (NCI-H23): 90.5% and 90.51%
Growth Percent (NCI-H226): 89.3% and 89.32%
Growth Percent (SK-MEL-28): 100.9% and 100.91%
Growth Percent (MDA-MB-468): 80.8%
Growth Percent (RXF 393): 97.2% and 97.22%
Growth Percent (HOP-92): 99.8% and 99.83%
Growth Percent (IGROV1): 87.7%
Growth Percent (OVCAR-3): 96.9% and 96.92%
Growth Percent (SK-MEL-5): 99.0% and 99.02%
Growth Percent (OVCAR-8): 104.4% and 104.46%
Growth Percent (SF-268): 91.8% and 91.83%
Growth Percent (BT-549): 112.4% and 112.44%
Growth Percent (SNB-75): 74.2% and 74.29%
Growth Percent (MALME-3M): 101.18%
Growth Percent (TK-10): 123.2% and 123.28%
Growth Percent (OVCAR-4): 94.7% and 94.72%
Growth Percent (OVCAR-5): 98.4% and 98.41%
Growth Percent (K-562): 94.9% and 94.99%
Growth Percent (PC-3): 100.1% and 100.15%
Growth Percent (HOP-62): 103.6% and 103.61%
Growth Percent (EKVX): 92.7% and 92.76%
Growth Percent (MCF7): 87.2% and 87.27%
Growth Percent (U251): 90.0% and 90.06%

COc1cccc(NC(=O)Nc2ccc(Nc3ncnc4sc(C(=O)NCCC(=O)NO)c(C)c34)cc2)c1 [Compound 11b, 1–(4-(6-((3-(hydroxyamino)-3-oxopropyl)carbamoyl)-5-methylthieno[2,3-d]pyrimidin-4-ylamino)phenyl)-3–(3-methoxyphenyl)urea]
Growth Percent (SN12C): 105.1% and 105.11%
Growth Percent (HCT-15): 99.0% and 99.06%
Growth Percent (LOX IMVI): 91.6% and 91.65%
Growth Percent (MDA-MB-231/ATCC): 100.5% and 100.55%
Growth Percent (COLO 205): 113.1% and 113.15%
Growth Percent (ACHN): 106.0% and 106.03%
Growth Percent (NCI-H522): 94.6% and 94.61%
Growth Percent (SW-620): 103.0% and 103.05%
Growth Percent (CCRF-CEM): 105.0% and 105.08%
Growth Percent (HCC-2998): 103.8% and 103.81%
Growth Percent (DU-145): 102.0% and 102.08%
Growth Percent (786-0): 101.3% and 101.34%
Growth Percent (NCI-H23): 96.6% and 96.67%
Growth Percent (NCI-H226): 87.7% and 87.79%
Growth Percent (SK-MEL-28): 105.3%
Growth Percent (MDA-MB-468): 83.0% and 83.04%
Growth Percent (RXF 393): 104.1%
Growth Percent (HOP-92): 119.1% and 119.18%
Growth Percent (IGROV1): 104.1% and 104.14%
Growth Percent (OVCAR-3): 108.9%
Growth Percent (SK-MEL-5): 95.8% and 95.84%
Growth Percent (OVCAR-8): 99.2% and 99.26%
Growth Percent (SF-268): 94.3% and 94.39%
Growth Percent (BT-549): 96.1% and 96.14%
Growth Percent (SNB-75): 83.7% and 83.79%
Growth Percent (MALME-3M): 107.0% and 107.03%
Growth Percent (TK-10): 109.9% and 109.96%
Growth Percent (OVCAR-4): 91.0% and 91.01%
Growth Percent (OVCAR-5): 101.9% and 101.91%
Growth Percent (K-562): 115.1% and 115.17%
Growth Percent (PC-3): 102.0% and 102.03%
Growth Percent (HOP-62): 103.2% and 103.23%
Growth Percent (EKVX): 90.7% and 90.77%
Growth Percent (MCF7): 90.5% and 90.58%
Growth Percent (U251): 97.1% and 97.12%

Cc1c(C(=O)NO)sc2ncnc(Nc3ccc(NC(=O)Nc4cccc(C(F)(F)F)c4)cc3)c12 [Compound 7c, 1–(4-(6-(hydroxycarbamoyl)-5-methylthieno[2,3-d]pyrimidin-4-ylamino)phenyl)-3–(3-(trifluoromethyl)phenyl)urea]
Growth Percent (SN12C): 97.89%
Growth Percent (HCT-15): 97.7% and 97.77%
Growth Percent (LOX IMVI): 90.9% and 90.99%
Growth Percent (MDA-MB-231/ATCC): 95.2% and 95.26%
Growth Percent (COLO 205): 103.3% and 103.35%
Growth Percent (ACHN): 94.84%
inhibition at 10 µM (NCI-H522; Homo sapiens, NSCLC NCI-H522, 10 μM): 11.7%
Growth Percent (NCI-H522): 88.3% and 88.38%
Growth Percent (SW-620): 108.7% and 108.79%
Growth Percent (CCRF-CEM): 101.6%
Growth Percent (HCC-2998): 112.6% and 112.66%
Growth Percent (DU-145): 104.5% and 104.51%
Growth Percent (786-0): 108.4% and 108.43%
inhibition at 10 µM (NCI-H23; Homo sapiens, NSCLC NCI-H23, 10 μM): 11.1%
Growth Percent (NCI-H23): 88.9% and 88.92%
Growth Percent (NCI-H226): 99.2% and 99.29%
Growth Percent (SK-MEL-28): 108.2% and 108.23%
Growth Percent (MDA-MB-468): 109.16%
Growth Percent (RXF 393): 106.61%
Growth Percent (HOP-92): 119.3% and 119.39%
Growth Percent (IGROV1): 97.6% and 97.68%
Growth Percent (OVCAR-3): 104.2% and 104.27%
Growth Percent (SK-MEL-5): 99.6% and 99.67%
Growth Percent (OVCAR-8): 100.4% and 100.41%
Growth Percent (SF-268): 89.2%
inhibition at 10 µM (SF-268; Homo sapiens, CNS SF-268, 10 μM): 10.8%
Growth Percent (BT-549): 115.1% and 115.17%
Growth Percent (SNB-75): 54.0% and 54.04%
inhibition at 10 µM (SNB-75; Homo sapiens, CNS SNB-75, 10 μM): 46%
Growth Percent (MALME-3M): 105.0% and 105.06%
Growth Percent (TK-10): 116.24%
Growth Percent (OVCAR-4): 103.4% and 103.45%
Growth Percent (OVCAR-5): 114.3% and 114.33%
Growth Percent (K-562): 91.7% and 91.72%
Growth Percent (PC-3): 91.1% and 91.19%
Growth Percent (HOP-62): 93.7% and 93.71%
Growth Percent (EKVX): 95.7% and 95.77%
Growth Percent (MCF7): 88.4% and 88.42%
inhibition at 10 µM (MCF7; Homo sapiens, breast MCF7, 10 μM): 11.6%
Growth Percent (U251): 73.1% and 73.13%
inhibition at 10 µM (U251; Homo sapiens, U-251, CNS U251, 10 μM): 26.9%
